From patent publication US7018642B2 (The Procter & Gamble Company, priority 2001, dated 2006)

Assays:
Format in all cases: cell-based
[1] = test system: P. aeruginosa strain PAO1; experiment: Biofilm prevention screen (96-well microplate, crystal violet); conditions: Pseudomonas aeruginosa, positive = prevention, negative = enhancement of biofilm formation, quadruplicate, read-out: average percentage reduction of biofilm formed relative to DMSO controls
Protocol: (§1) Overnight cultures of 3 mL are made of P. aeruginosa strain PAO1 (grown in R2A medium (Handbook of Microbiological Media; CRC Press, 1997, second edition, R. M. Atlas, ed.), modified to omit Mg^2+ but to include 0.3–0.5% fructose (pH 7.0) and 3 μM ferrous ammonium sulfate), P. fluorescens strain ATCC 13525 (grown in R2A modified to omit Mg^2+ but to include 0.3–0.5% sodium pyruvate (pH 7.0)), S. epidermidis strain ATCC 35984 (grown in a ¼ dilution of TSB (Handbook of Microbiological Media; CRC Press, 1997, second edition, R. M. Atlas, ed.) supplemented with 1% fructose (pH 7.0) and 3 μM ferrous ammonium sulfate). To each type of growth medium, HEPES (pH 7.3) is optionally added to a final concentration of 10 mM.
(§2) To PS, PVC, or PP (preferably PP or PVC) round-bottom, 96-well microplates containing 100 μl per well of the respective growth medium as described above, compounds to be tested (dissolved in DMSO) are added and mixed, to give a final concentration of 250–500 μM. These microplates then also are used to make successive dilutions of the compounds in the same respective growth medium to yield microplates containing final concentrations of, for example, 160 μM and 32 μM of the same set of compounds. Control wells are included in the dilution series that contain only DMSO. From the 3 ml overnight cultures, each of the three dilution plate sets is inoculated with 5 μl per well of a 1:1 dilution in the same liquid growth media of the appropriate culture. The covered plate is then incubated with shaking, at 30° C. (for P. aeruginosa or P. fluorescens) or 37° C. (for S. epidermidis), at 200 rpm, for 16–26 hours, in a humidity controlled environment.
(§3) Cells present in biofilm attached to the microplate surface are stained with CV either after removal of the liquid from each well, followed by rinsing three times (aspiration and addition) with 150 μl per well phosphate buffered saline solution (PBS) and final addition of 100 μl per well of PBS, or by direct addition of stain to bacterial cultures without rinsing. To 100 μl per well of PBS or of bacterial culture, 25 μl/well of 1% CV solution (in ˜10% ethanol) is added. After incubation at room temperature for 45 minutes, the dye solution is removed from the plates. Residual dye is immediately removed by gentle rinsing with a stream of deionized water by filling and inverting the plates 4–5 times, or by using an automated pipettor. Rinsed plates are air-dried at room temperature for 0.5–2 hours. Bound dye is extracted by the addition of 150 μL per well of 95% ethanol, followed by vigorous mixing for 10–15 seconds and incubation for 45 minutes at room temperature without shaking. Subsequently, either undiluted or diluted (in ethanol) samples of extracted CV are transferred to flat bottom, polystyrene microtiter plates and absorbances at 586 nm were measured in a microplate reader. Readings from wells containing compounds are compared to the average of data from control wells that contain only DMSO. Replicate samples are measured, and results are reported as averages of the replicate well data points.
(§4) Data are expressed in terms of the average percentage reduction of biofilm formed in the presence of each compound, relative to the DMSO controls, for quadruplicate samples. Assays are run using the three compound concentrations indicated. Positive numbers indicate prevention of biofilm formation by a compound, and negative numbers indicate enhancement of biofilm formation by a compound (percentage coefficients of variation are ≦10%).

[2] = test system: P. fluorescens strain ATCC 13525; experiment: as above; conditions: Pseudomonas fluorescens, positive = prevention, negative = enhancement of biofilm formation, quadruplicate, read-out: average percentage reduction of biofilm formed relative to DMSO controls; for inhibition at 32 µM: ATCC13525, 32 μM; for inhibition at 160 µM: ATCC13525, 160 μM; for inhibition at 390 µM: ATCC13525, 390 μM
Protocol: as §1, §2, §3, §4

[3] = test system: S. epidermidis strain ATCC 35984; experiment: as above; conditions: Staphylococcus epidermidis, positive = prevention, negative = enhancement of biofilm formation, quadruplicate, read-out: average percentage reduction of biofilm formed relative to DMSO controls; for inhibition at 32 µM: ATCC35984, 32 μM; for inhibition at 160 µM: ATCC35984, 160 μM; for inhibition at 390 µM: ATCC35984, 390 μM
Protocol: as §1, §2, §3, §4

[4] = test system: P. aeruginosa strain PAO1; experiment: Improved biofilm dispersion screen (already-formed biofilms, crystal violet); conditions: Pseudomonas aeruginosa, 30 mM NaOH step, positive = dispersion, negative = enhancement of pre-existing biofilm, quadruplicate, read-out: average percentage reduction of biofilm relative to the two control values (dispersion)
Protocol: (§5) A modification of method disclosed in Reference Example 2, which greatly improves the sensitivity and reproducibility of the dispersion screen is hereby disclosed. […] In the modification described herein, compounds are added in the presence of the fresh liquid growth media, such that the resultant biofilms continue to grow, unless a test compound triggers their dispersion. Overnight cultures are made as above, and 100 μL of the appropriate liquid growth media are dispensed into duplicate 96 well microplates—in this fashion, two identical microplates are set up for each bacterial species to be assayed. Neither compounds nor DMSO are added prior to the inoculation of bacteria, and growth in the duplicate plates for 24 hours is allowed using the conditions specified in Reference Example 1. After growth of biofilm to be tested in the wells, cells present in biofilm attached to one of the duplicate microplates is stained with CV, quantitated as described in Reference Example 1, and the data for the entire plate averaged, resulting in a growth control value, t0. The remaining replicate of each microplate pairs is treated with compounds in DMSO, or DMSO alone for control wells, by first removing the cell suspensions from the wells, then adding fresh 100 μL volumes of the same appropriate liquid growth media, followed by direct addition and mixing of the compound DMSO solutions to give final compound concentrations of 390 μM. Incubation of the compound-containing microplates is then continued for an additional 22–26 hours using the same conditions described in Reference Example 1. Cell suspensions are then removed, 100 μL per well of a 0 mM NaOH (S. epidermidis), 20 mM NaOH (P. fluorescens), or 30 mM NaOH (P. aeruginosa) solution in PBS is added, and incubation at room temperature is allowed for 30 minutes. No addition of NaOH is made to the S. epidermidis suspension since a test assay indicated no amplification by base with S. epidermidis. The microplates are subsequently rinsed three times with 150 μL per well of PBS, followed by final liquid removal, staining with CV and quantitation as described in Reference Example 1. Data for each well that contained compound result in a compound value, R, and data for control wells that contained DMSO only are averaged to generate a second control value, t24. The effect of each compound tested on dispersion of the biofilm compared to the two control values is calculated thus: [formula] […] Data are expressed in terms of the average percentage reduction of biofilm formed in the presence of each compound, relative to the two control values, for quadruplicate samples. Assays are run as described above, using compound concentrations of 390 μM. Positive numbers indicate dispersion (reduction) of pre-existing biofilms by a compound, and negative numbers indicate enhancement (stimulation of growth) of pre-existing biofilms by a compound (percentage coefficients of variation are ≦15%).

[5] = test system: P. fluorescens strain ATCC 13525; experiment: as above; conditions: Pseudomonas fluorescens, ATCC13525, 20 mM NaOH step, positive = dispersion, negative = enhancement of pre-existing biofilm, quadruplicate, read-out: average percentage reduction of biofilm relative to the two control values (dispersion)
Protocol: as §5

[6] = test system: S. epidermidis strain ATCC 35984; experiment: as above; conditions: Staphylococcus epidermidis, ATCC35984, no NaOH, positive = dispersion, negative = enhancement of pre-existing biofilm, quadruplicate, read-out: average percentage reduction of biofilm relative to the two control values (dispersion)
Protocol: as §5

SMILES: CCCCNC(=O)[C@H]1CCCN1 [Compound 162]
- inhibition at 32 µM [1]: -9%
- inhibition at 160 µM [1]: -13%
- inhibition at 390 µM [1]: -9%
- inhibition at 32 µM [2]: 7%
- inhibition at 160 µM [2]: 1%
- inhibition at 390 µM [2]: 11%
- inhibition at 32 µM [3]: -4%
- inhibition at 160 µM [3]: -8%
- inhibition at 390 µM [3]: -47%
- inhibition at 390 µM [4]: -23%
- inhibition at 390 µM [5]: 0%
- inhibition at 390 µM [6]: 0%

SMILES: CCCCNC(=O)[C@@H]1CCCN1C(=O)OC(C)(C)C [Compound 155]
- inhibition at 32 µM [1]: -5%
- inhibition at 160 µM [1]: 2%
- inhibition at 390 µM [1]: 6%
- inhibition at 32 µM [2]: 10%
- inhibition at 160 µM [2]: 4%
- inhibition at 390 µM [2]: 4%
- inhibition at 32 µM [3]: -3%
- inhibition at 160 µM [3]: -1%
- inhibition at 390 µM [3]: 21%
- inhibition at 390 µM [4]: -12%
- inhibition at 390 µM [5]: 3%
- inhibition at 390 µM [6]: -4%

SMILES: CCCCCCCCCCCCNC(=O)[C@@H]1CCN1 [Compound 290]
- inhibition at 32 µM [1]: 6%
- inhibition at 160 µM [1]: -16%
- inhibition at 390 µM [1]: 37%
- inhibition at 32 µM [2]: -12%
- inhibition at 160 µM [2]: 98%
- inhibition at 390 µM [2]: 93%
- inhibition at 32 µM [3]: 101%
- inhibition at 160 µM [3]: 100%
- inhibition at 390 µM [3]: 97%
- inhibition at 390 µM [4]: -72%
- inhibition at 390 µM [5]: 21%
- inhibition at 390 µM [6]: 82%

SMILES: CCCCCCCCCCCCNC(=O)[C@H]1CCCN1C(=O)OC(C)(C)C [Compound 159]
- inhibition at 32 µM [1]: -9%
- inhibition at 160 µM [1]: -38%
- inhibition at 390 µM [1]: -50%
- inhibition at 32 µM [2]: -1%
- inhibition at 160 µM [2]: -3%
- inhibition at 390 µM [2]: -13%
- inhibition at 32 µM [3]: -9%
- inhibition at 160 µM [3]: -20%
- inhibition at 390 µM [3]: -3%
- inhibition at 390 µM [4]: -55%
- inhibition at 390 µM [5]: -94%
- inhibition at 390 µM [6]: 0%

SMILES: CCCCCCNC(=O)[C@@H]1CCCN1 [Compound 30]
- inhibition at 32 µM [1]: 2%
- inhibition at 160 µM [1]: 9%
- inhibition at 390 µM [1]: 18%
- inhibition at 32 µM [2]: 11%
- inhibition at 160 µM [2]: 11%
- inhibition at 390 µM [2]: 19%
- inhibition at 32 µM [3]: -12%
- inhibition at 160 µM [3]: -7%
- inhibition at 390 µM [3]: -6%
- inhibition at 390 µM [4]: 1%
- inhibition at 390 µM [5]: 20%
- inhibition at 390 µM [6]: -11%

SMILES: CCCCCCCCNC(=O)[C@H]1CCCCN1C(C)=O [Compound 24]
- inhibition at 32 µM [1]: -12%
- inhibition at 160 µM [1]: -22%
- inhibition at 390 µM [1]: -11%
- inhibition at 32 µM [2]: -1%
- inhibition at 160 µM [2]: -6%
- inhibition at 390 µM [2]: -2%
- inhibition at 32 µM [3]: -8%
- inhibition at 160 µM [3]: -20%
- inhibition at 390 µM [3]: -53%
- inhibition at 390 µM [4]: -17%
- inhibition at 390 µM [5]: 0%
- inhibition at 390 µM [6]: -8%

SMILES: CCCCCCCCNC(=O)[C@H]1CCCN1 [Compound 164]
- inhibition at 32 µM [1]: 6%
- inhibition at 160 µM [1]: 11%
- inhibition at 390 µM [1]: 12%
- inhibition at 32 µM [2]: 8%
- inhibition at 160 µM [2]: 7%
- inhibition at 390 µM [2]: 54%
- inhibition at 32 µM [3]: -8%
- inhibition at 160 µM [3]: -1%
- inhibition at 390 µM [3]: -35%
- inhibition at 390 µM [4]: 38%
- inhibition at 390 µM [5]: 47%
- inhibition at 390 µM [6]: -3%

SMILES: CCCCCCCCNC(=O)[C@H]1CCCN1C(=O)OC(C)(C)C [Compound 154]
- inhibition at 32 µM [1]: -1%
- inhibition at 160 µM [1]: -9%
- inhibition at 390 µM [1]: -15%
- inhibition at 32 µM [2]: 4%
- inhibition at 160 µM [2]: 10%
- inhibition at 390 µM [2]: 11%
- inhibition at 32 µM [3]: -16%
- inhibition at 160 µM [3]: -42%
- inhibition at 390 µM [3]: 52%
- inhibition at 390 µM [4]: -63%
- inhibition at 390 µM [5]: 10%
- inhibition at 390 µM [6]: 0%

SMILES: CCCCCCCCCCNC(=O)[C@@H]1CCN1C(=O)OC(C)(C)C [Compound 285, N-(tert-Butoxycarbonyl)-(S)-(−)-2-azetidinecarboxylic acid n-decyl amide]
- inhibition at 32 µM [1]: 7%
- inhibition at 160 µM [1]: -20%
- inhibition at 390 µM [1]: -21%
- inhibition at 32 µM [2]: -12%
- inhibition at 160 µM [2]: -44%
- inhibition at 390 µM [2]: -32%
- inhibition at 32 µM [3]: 2%
- inhibition at 160 µM [3]: 17%
- inhibition at 390 µM [3]: 66%
- inhibition at 390 µM [4]: -37%
- inhibition at 390 µM [5]: -74%
- inhibition at 390 µM [6]: 0%
